ChEMBL document CHEMBL1158107, “Oleanane and taraxerane glycosides from the roots of Gomphrena macrocephala” (J Nat Prod, 2006)
Active and inactive are the calls of the source. The rule behind the calls is not given here.

The molecules below were run on HSC-2 (assay: Cytotoxicity against human HSC2 cells after 24 hrs by MTT assay). Conditions: HSC-2, 24 h.
Format: functional, cell-based

Question: With `CC1(C)CC[C@@]23CC[C@]4(C)[C@@](OC2=O)([C@@H]3C1)[C@H]1O[C@H]1[C@@H]1[C@@]2(C)CC[C@H](O)C(C)(C)[C@@H]2CC[C@]14C` as the molecule, how does the IC50 read?
Answer: Its IC50 is 21 µM.

Question: `COc1cc([C@@H]2c3cc4c(cc3[C@@H](O[C@@H]3O[C@@H]5CO[C@@H](C)O[C@H]5[C@H](O)[C@H]3O)[C@H]3COC(=O)[C@H]23)OCO4)cc(OC)c1O` [ETOPOSIDE] was tested. Which IC50 did it give?
Answer: The IC50 was 24 µM.

Question: `CC1(C)CC[C@]2(C(=O)O)CC=C3[C@](C)([C@@H]2C1)[C@H]1O[C@H]1[C@@H]1[C@@]2(C)CC[C@H](O)C(C)(C)[C@@H]2CC[C@@]31C` was tested. Which IC50 did it give?
Answer: Its IC50 is 21 µM.

What follows are molecules tested on HSC-2 (assay: Cytotoxicity against human HSC2 cells at 100 uM after 24 hrs by MTT assay). Conditions: not given.
Format: functional, cell-based

Question: How did the Activity turn out when `CC1(C)CC[C@@]23CC[C@]4(C)[C@@](OC2=O)([C@@H]3C1)[C@H]1O[C@H]1[C@@H]1[C@@]2(C)CC[C@H](O[C@@H]3O[C@H](C(=O)O)[C@@H](O)[C@H](O)[C@H]3O)C(C)(C)[C@@H]2CC[C@]14C` was run?
Answer: Its Activity is “inactive”.

Question: How did the Activity turn out when `CC1(C)CC[C@@]23CC[C@]4(C)[C@@](OC2=O)([C@@H]3C1)[C@H]1O[C@H]1[C@@H]1[C@@]2(C)CC[C@H](O[C@@H]3O[C@H](C(=O)O)[C@@H](O)[C@H](O[C@@H]5O[C@H](CO)[C@H](O)[C@H](O)[C@H]5O)[C@H]3O[C@@H]3O[C@H](CO)[C@@H](O)[C@H](O)[C@H]3O)C(C)(C)[C@@H]2CC[C@]14C` was run?
Answer: The Activity was “inactive”.

Question: How did the Activity turn out when `CC1(C)CC[C@]2(C(=O)O[C@@H]3O[C@H](CO)[C@@H](O)[C@H](O)[C@H]3O)CC=C3[C@](C)([C@@H]2C1)[C@H]1O[C@H]1[C@@H]1[C@@]2(C)CC[C@H](O[C@@H]4O[C@H](C(=O)O)[C@@H](O)[C@H](O)[C@H]4O)C(C)(C)[C@@H]2CC[C@@]31C` was run?
Answer: The Activity was “inactive”.
